Source: the supplement of paper PMC10307832

How the values were obtained:
CX-5461 + Foretinib = compound: Cc1cnc(CNC(=O)c2c(=O)c3ccc(N4CCCN(C)CC4)nc3n3c2sc2ccccc23)cn1 [CX-5461] + COc1cc2c(Oc3ccc(NC(=O)C4(C(=O)Nc5ccc(F)cc5)CC4)cc3F)ccnc2cc1OCCCN1CCOCC1 [Foretinib] (partner 0.25 µM); assay: relative viability (nuclei count vs DMSO), 5 days (fraction); higher = more cells survive
Summary of the method: (§1)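 Lung cancer cell lines, seeded in 1536-well plates, were treated the following day by pin tool with a single drug or with five library-drug doses (not always all listed) in √10 steps on top of a fixed anchor-drug dose. Cells were fixed and nuclei stained in one step after 5 days, and nuclei were counted. Relative viability is the nuclei count for treated wells divided by that for vehicle wells, reported as medians of duplicate plates.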

IMD-0354 + Tozasertib = compound: O=C(Nc1cc(C(F)(F)F)cc(C(F)(F)F)c1)c1cc(Cl)ccc1O [IMD-0354] + Cc1cc(Nc2cc(N3CCN(C)CC3)nc(Sc3ccc(NC(=O)C4CC4)cc3)n2)n[nH]1 [Tozasertib] (partner 0.1 µM); assay: as above
Summary of the method: as §1

| Cell Line | relative viability (CX-5461 + Foretinib; first compound 0.01 µM) | relative viability (CX-5461 + Foretinib; first compound 0.03162 µM) | relative viability (CX-5461 + Foretinib; first compound 0.1 µM) | relative viability (CX-5461 + Foretinib; first compound 0.3162 µM) | relative viability (CX-5461 + Foretinib; first compound 1 µM) | relative viability (IMD-0354 + Tozasertib; first compound 0.04 µM) | relative viability (IMD-0354 + Tozasertib; first compound 0.1265 µM) | relative viability (IMD-0354 + Tozasertib; first compound 0.4 µM) | relative viability (IMD-0354 + Tozasertib; first compound 1.265 µM) | relative viability (IMD-0354 + Tozasertib; first compound 4 µM) |
| --- | --- | --- | --- | --- | --- | --- | --- | --- | --- | --- |
| NCI-H650 | 1.07 | 1.02 | 1.01 | 0.977 | 0.932 | 0.834 | 0.745 | 0.644 | 0.36 | 0.2 |
| NCI-H1666 | 1.02 | 0.969 | 0.962 | 0.916 | 0.692 | 0.672 | 0.587 | 0.488 | 0.369 | 0.309 |
| NCI-H2085 | 0.961 | 1.07 | 0.92 | 0.864 | 0.826 | 0.941 | 0.797 | 0.681 | 0.459 | 0.405 |
| NCI-H1734 | 0.88 | 0.878 | 0.941 | 0.634 | 0.758 | 0.267 | 0.267 | 0.265 | 0.231 | 0.117 |
| NCI-H2126 | 1.28 | 1.3 | 1.16 | 1.39 | 0.838 | 0.915 | 0.942 | 0.573 | 0.348 | 0.294 |
| EMC-BAC-2 | 0.988 | 1.13 | 1.06 | 0.928 | 0.885 | 0.276 | 0.301 | 0.24 | 0.296 | 0.224 |
| NCI-H1993 | 0.738 | 0.779 | 0.813 | 0.746 | 0.788 | 0.626 | 0.623 | 0.487 | 0.452 | 0.479 |
| NCI-H520 | 0.748 | 0.677 | 0.721 | 0.503 | 0.725 | 0.441 | 0.379 | 0.385 | 0.347 | 0.229 |
| NCI-H647 | 1.21 | 1.25 | 1.26 | 1.05 | 1 | 0.441 | 0.379 | 0.223 | 0.169 |  |
| SW 1573 | 0.887 | 0.83 | 0.98 | 0.397 | 0.531 | 0.182 | 0.16 | 0.175 | 0.0971 | 0.0737 |
| ChaGo-K-1 | 0.927 | 0.981 | 0.917 | 0.597 | 0.883 | 0.226 | 0.196 | 0.236 | 0.171 | 0.176 |
| NCI-H522 |  |  |  |  |  | 0.58 | 0.513 | 0.5 | 0.576 | 0.404 |
| NCI-H1299 | 1.06 | 1.06 | 1.09 | 1.06 | 1.11 |  |  |  |  |  |
| NCI-H1650 | 1.35 | 1.45 | 0.958 | 0.928 | 0.385 | 0.47 | 0.362 | 0.253 | 0.259 | 0.19 |
| NCI-H2009 | 1.24 | 1.17 | 1.07 | 1.18 | 1.04 | 0.877 | 0.752 | 0.51 | 0.24 | 0.139 |
| LOU-NH91 | 1.02 | 1.02 | 0.935 |  | 0.942 | 0.774 | 0.626 | 0.523 | 0.184 | 0.174 |
| NCI-H2405 | 1.03 | 1.08 | 1.04 | 0.952 | 1.03 | 0.742 | 0.727 | 0.732 | 0.346 | 0.322 |
| NCI-H1648 |  |  |  |  |  |  | 0.454 | 0.498 | 0.424 | 0.269 |

| Cell Line | relative viability (CX-5461 + Foretinib; first compound 0.01 µM) | relative viability (CX-5461 + Foretinib; first compound 0.03162 µM) | relative viability (CX-5461 + Foretinib; first compound 0.1 µM) | relative viability (CX-5461 + Foretinib; first compound 0.3162 µM) | relative viability (CX-5461 + Foretinib; first compound 1 µM) | relative viability (IMD-0354 + Tozasertib; first compound 0.04 µM) | relative viability (IMD-0354 + Tozasertib; first compound 0.1265 µM) | relative viability (IMD-0354 + Tozasertib; first compound 0.4 µM) | relative viability (IMD-0354 + Tozasertib; first compound 1.265 µM) | relative viability (IMD-0354 + Tozasertib; first compound 4 µM) |
| --- | --- | --- | --- | --- | --- | --- | --- | --- | --- | --- |
| LCLC-97TM1 | 0.953 | 1.02 | 1 |  | 0.975 | 0.2 | 0.223 | 0.171 | 0.18 | 0.116 |
| NCI-H596 | 0.896 | 1.18 | 0.888 | 1.03 | 0.97 | 1.02 | 0.946 | 0.599 | 0.955 | 0.503 |
| NCI-H727 | 0.96 | 1.14 | 0.949 | 0.722 | 0.837 | 0.602 | 0.673 | 0.489 | 0.539 | 0.453 |
| H3255 | 0.907 | 0.854 | 0.818 | 0.558 | 0.835 | 0.631 | 0.602 | 0.493 | 0.586 | 0.387 |
| LK-2 | 1.17 | 0.942 | 1.26 |  | 1.24 | 0.182 | 0.179 | 0.207 | 0.175 | 0.131 |
| NCI-H1437 | 1.25 | 1.26 |  | 1.23 | 1.18 | 0.457 | 0.394 | 0.289 | 0.262 | 0.224 |
| NCI-H2342 | 0.98 | 1.1 | 1.07 | 1.03 | 1.08 | 0.497 | 0.534 | 0.471 | 0.401 | 0.377 |
| LU99A | 0.818 | 0.797 | 0.764 | 0.495 | 0.798 | 0.326 | 0.254 | 0.267 | 0.244 | 0.218 |
| SW 900 | 0.967 | 0.968 | 1.07 | 1.08 | 0.811 | 0.635 | 0.531 | 0.409 | 0.273 | 0.225 |
| HCC-827 | 1.08 | 1.09 | 1.02 | 1.03 | 1.06 | 0.437 | 0.458 | 0.353 | 0.353 | 0.182 |
| NCI-H1395 | 0.959 | 0.916 | 0.884 | 0.988 | 0.737 | 0.753 | 0.721 | 0.683 | 0.453 | 0.344 |
| HCC-366 | 1.03 | 0.913 | 0.924 | 0.756 | 0.931 | 0.122 | 0.0913 | 0.168 | 0.0335 | 0.031 |
| BEN | 0.781 | 0.606 | 0.739 | 0.525 | 0.636 | 0.53 | 0.51 | 0.329 | 0.468 | 0.452 |
| NCI-H23 | 0.874 | 1.15 | 0.98 | 0.938 | 1.08 | 0.338 | 0.376 | 0.275 | 0.157 | 0.186 |
| NCI-H1793 | 0.8 | 0.734 | 0.665 |  | 0.802 | 0.405 | 0.321 | 0.233 | 0.15 | 0.191 |
| A549 | 1.01 | 0.883 | 0.948 | 0.987 | 0.385 |  |  |  |  |  |
| 201T | 1.06 | 1.05 | 1.04 | 1.08 | 0.74 | 1.14 | 0.996 | 0.614 | 1.06 | 0.354 |
| NCI-H1563 | 0.88 | 0.826 | 0.806 | 0.826 | 0.569 |  |  |  |  |  |
